Measurements as given in patent US10076519B2 (CYTOKINETICS, INC., priority 2010, dated 2018).
Blank lines part the entries; values can stand above or below the compound they belong to.

System: rabbit skeletal myofibrils (fast skeletal myofibrils)
Experiment: Activation of fast skeletal myofibrils (PUMA assay, PK/LDH-coupled ATPase at pCa25)
Type: biochemical
Method in brief: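 ATPase activity of Triton-washed rabbit skeletal myofibrils, roughly 90% fast fibres, tracked by NADH loss at 340 nm through a PK/LDH-coupled ADP-regenerating system. Calcium set to 25% of maximal activity (pCa25), in PIPES 12 mM pH 6.8 with 2 mM MgCl2 and 1 mM DTT; AC1.4 reported.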

[1] = median AC1.4 reported as class, procedure of Example 39
[2] = median AC1.4 class, procedure of Example 39
[3] = AC1.4 determined according to the procedure of Example 39, reported as class symbols

Mean AC1.4 [1]: B (B=1-10 uM)
SMILES: COc1ccc(-c2ccc(NC[C@]3(c4ncccc4F)C[C@H](F)C3)nn2)cc1C(N)=O [5-[6-({[3-fluoro-1-(3-fluoro(2-pyridyl))cyclobutyl]methyl}ami-no)pyridazin-3-yl]-2-methoxybenzamide]

Mean AC1.4 [1]: A (A=<1 uM)
SMILES: NC(=O)c1cc2cc(-c3ccc(NC[C@]4(c5ncccc5F)C[C@H](F)C4)nn3)ccc2[nH]1 [5-[6-({[3-fluoro-1-(3-fluoro(2-pyridyl))cyclobutyl]methyl}ami-no)pyridazin-3-yl]indole-2-carboxamide]

Mean AC1.4 [1]: B (B=1-10 uM)
SMILES: O=C(O)c1cc2cc(-c3ccc(NC[C@]4(c5ncccc5F)C[C@H](F)C4)nn3)ccc2[nH]1 [5-[6-({[3-fluoro-1-(3-fluoro(2-pyridyl))cyclobutyl]methyl}ami-no)pyridazin-3-yl]indole-2-carboxylic acid]

Mean AC1.4 [1]: C (C=10-20 uM)
SMILES: O=C1NCc2cc(-c3ccc(NC[C@]4(c5ncccc5F)C[C@H](F)C4)nn3)ccc21 [5-[6-({[3-fluoro-1-(3-fluoro(2-pyridyl))cyclobutyl]methyl}ami-no)pyridazin-3-yl]isoindolin-1-one]

Mean AC1.4 [1]: D (D=>20 uM)
SMILES: COc1ncc(-c2ccc(NCC3(c4ncccc4F)CCC3)nn2)cc1C#N [5-[6-({[(3-fluoro(2-pyridyl))cyclobutyl]methyl}ami-no)pyridazin-3-yl]-2-methoxypyridine-3-carbonitrile]

Mean AC1.4 [1]: C (C=10-20 uM)
SMILES: COc1ncc(-c2ccc(NCC3(c4ncccc4F)CCC3)nn2)cc1C(N)=O [5-[6-({[(3-fluoro(2-pyridyl))cyclobutyl]methyl}ami-no)pyridazin-3-yl]-2-methoxypyridine-3-carboxamide]

Mean AC1.4 [1]: C (C=10-20 uM)
SMILES: NC(=O)c1cc(-c2ccc(NCC3(c4ncccc4F)CCC3)nn2)c[nH]c1=O [5-[6-({[(3-fluoro(2-pyridyl))cyclobutyl]methyl}ami-no)pyridazin-3-yl]-2-oxohydropyridine-3-carboxamide]

Mean AC1.4 [1]: D (D=>20 uM)
SMILES: O=C(O)c1cc(-c2ccc(NCC3(c4ncccc4F)CCC3)nn2)c[nH]c1=O [5-[6-({[(3-fluoro(2-pyridyl))cyclobutyl]methyl}ami-no)pyridazin-3-yl]-2-oxohydropyridine-3-carboxylic acid]

Mean AC1.4 [2]: C (C=10-20 uM)
SMILES: NC(=O)c1nnc(-c2ccc(NCC3(c4ncccc4F)CCC3)nn2)o1 [5-[6-({[(3-fluoro-2-pyridyl)cyclobutyl]methyl}ami-no)pyridazin-3-yl]-1,3,4-oxadiazole-2-carboxamide]

Mean AC1.4 [2]: B (B=1-10 uM)
SMILES: NC(=O)c1nnc(-c2ccc(NCC3(c4ncccc4F)CCC3)nn2)s1 [5-[6-({[(3-fluoro-2-pyridyl)cyclobutyl]methyl}ami-no)pyridazin-3-yl]-1,3,4-thiadiazole-2-carboxamide]

Mean AC1.4 [2]: B (B=1-10 uM)
SMILES: NC(=O)c1ncc(-c2ccc(NCC3(c4ncccc4F)CCC3)nn2)s1 [5-[6-({[(3-fluoro-2-pyridyl)cyclobutyl]methyl}ami-no)pyridazin-3-yl]-1,3-thiazole-2-carboxamide]

Mean AC1.4 [2]: D (D=>20 uM)
SMILES: O=c1[nH][nH]c2nc(-c3ccc(NCC4(c5ncccc5F)CCC4)nn3)sc12 [5-[6-({[(3-fluoro-2-pyridyl)cyclobutyl]methyl}ami-no)pyridazin-3-yl]-3-pyrazolino[3,4-d]1,3-thiazol-3-one]

Mean AC1.4 [2]: C (C=10-20 uM)
SMILES: NC(=O)c1nnc(-c2ccc(NCC3(c4ncccc4F)CCC3)nn2)[nH]1 [5-[6-({[(3-fluoro-2-pyridyl)cyclobutyl]methyl}ami-no)pyridazin-3-yl]-4H-1,2,4-triazole-3-carboxamide]

Mean AC1.4 [1]: B (B=1-10 uM)
SMILES: O=c1cc(-c2ccc(NCC3(c4ncccc4F)CCC3)nn2)nc2cc[nH]n12 [5-[6-({[(3-fluoro-2-pyridyl)cyclobutyl]methyl}ami-no)pyridazin-3-yl]-8-hydro-3-pyrazolino[1,5-a]pyrimidin-7-one]

Mean AC1.4 [2]: B (B=1-10 uM)
SMILES: N#Cc1ccc(-c2ccc(NCC3(c4ncccc4F)CCC3)nn2)s1 [5-[6-({[(3-fluoro-2-pyridyl)cyclobutyl]methyl}ami-no)pyridazin-3-yl]thiophene-2-carbonitrile]

Mean AC1.4 [2]: A (A=<1 uM)
SMILES: NC(=O)c1ccc(-c2ccc(NCC3(c4ncccc4F)CCC3)nn2)s1 [5-[6-({[(3-fluoro-2-pyridyl)cyclobutyl]methyl}ami-no)pyridazin-3-yl]thiophene-2-carboxamide]

Mean AC1.4 [2]: B (B=1-10 uM)
SMILES: O=C(O)c1ccc(-c2ccc(NCC3(c4ncccc4F)CCC3)nn2)s1 [5-[6-({[(3-fluoro-2-pyridyl)cyclobutyl]methyl}ami-no)pyridazin-3-yl]thiophene-2-carboxylic acid]

Mean AC1.4 [3]: B (B=1-10 uM)
SMILES: N#Cc1cncc(-c2ccc(NCC3(c4ccc(F)cc4)CC3)nn2)c1 [5-[6-({[(4-fluorophenyl)cyclopropyl]meth-yl}amino)pyridazin-3-yl]pyridine-3-carbonitrile]

Mean AC1.4 [3]: B (B=1-10 uM)
SMILES: NC(=O)c1cncc(-c2ccc(NCC3(c4ccc(F)cc4)CC3)nn2)c1 [5-[6-({[(4-fluorophenyl)cyclopropyl]meth-yl}amino)pyridazin-3-yl]pyridine-3-carboxamide]

Mean AC1.4 [1]: D (D=>20 uM)
SMILES: CC(=O)N1CCc2nc(-c3ccc(NCC4(c5ncccc5F)CCC4)nn3)sc2C1 [5-acetyl-2-[6-({[(3-fluoro(2-pyridyl))cyclobutyl]methyl}ami-no)pyridazin-3-yl]-4,5,6,7-tetrahydro-1,3-thiazolo[5,4-c]pyridine]

Mean AC1.4 [1]: B (B=1-10 uM)
SMILES: NC(=O)c1cc(N)cc(-c2ccc(NC[C@]3(c4ncccc4F)C[C@H](F)C3)nn2)c1 [5-amino-3-[6-({[3-fluoro-1-(3-fluoro(2-pyridyl))cyclobutyl]methyl}ami-no)pyridazin-3-yl]benzamide]

Mean AC1.4 [1]: A (A=<1 uM)
SMILES: N#Cc1cc(N)cc(-c2ccc(NC[C@]3(c4ncccc4F)C[C@H](F)C3)nn2)c1 [5-amino-3-[6-({[3-fluoro-1-(3-fluoro(2-pyridyl))cyclobutyl]methyl}ami-no)pyridazin-3-yl]benzenecarbonitrile]

Mean AC1.4 [1]: A (A=<1 uM)
SMILES: N#Cc1cc(Br)cc(-c2ccc(NCC3(c4ncccc4F)CCC3)nn2)c1O [5-bromo-3-[6-({[(3-fluoro(2-pyridyl))cyclobutyl]methyl}ami-no)pyridazin-3-yl]-2-hydroxybenzenecarbonitrile]

Mean AC1.4 [1]: B (B=1-10 uM)
SMILES: NC(=O)c1cc(Cl)cc(-c2ccc(NC[C@]3(c4ncccc4F)C[C@H](F)C3)nn2)c1 [5-chloro-3-[6-({[3-fluoro-1-(3-fluoro(2-pyridyl))cyclobutyl]methyl}ami-no)pyridazin-3-yl]benzamide]

Mean AC1.4 [2]: B (B=1-10 uM)
SMILES: O=c1[nH]nc(-c2cnc(-c3ccc(NCC4(c5ncccc5F)CCC4)nn3)s2)o1 [5-{2-[6-({[(3-fluoro-2-pyridyl)cyclobutyl]methyl}ami-no)pyridazin-3-yl]-1,3-thiazol-5-yl}-1,3,4-oxadiazolin-2-one]

Mean AC1.4 [1]: C (C=10-20 uM)
SMILES: NC(=O)c1cn[nH]c1NC(=O)c1ccc(NCC2(c3ncccc3F)CCC2)nn1 [5-{[6-({[(3-fluoro-2-pyridyl)cyclobutyl]methyl}ami-no)pyridazin-3-yl]carbonylamino}pyrazole-4-carboxamide]

Mean AC1.4 [3]: B (B=1-10 uM)
SMILES: CC(C)(CNc1nnc(-c2cccc(C(N)=O)c2)cc1C(N)=O)c1ccc(F)cc1 [6-(3-carbamoylphenyl)-3-{[2-(4-fluorophenyl)-2-methylpropyl]amino}pyridazine-4-carboxamide]

Mean AC1.4 [1]: B (B=1-10 uM)
SMILES: CC(C)(Nc1ccc(-c2cn3c(C(N)=O)csc3n2)nn1)c1ncccc1Cl [6-(6-{[1-(3-chloro(2-pyridyl))-isopropyl]amino}pyridazin-3-yl)imidazo[2,1-b]1,3-thiazoline-3-carboxamide]

Mean AC1.4 [3]: B (B=1-10 uM)
SMILES: CC(C)(CNc1ccc(-c2ccc3[nH]c(=O)[nH]c(=O)c3c2)nn1)c1ccc(F)cc1 [6-(6-{[2-(4-fluorophenyl)-2-methylpropyl]amino}pyridazin-3-yl)-1,3-dihydroquinazoline-2,4-dione]

Mean AC1.4 [3]: A (A=<1 uM)
SMILES: CC(C)(CNc1ccc(-c2ccc3[nH]c(=O)c(=O)[nH]c3c2)nn1)c1ccc(F)cc1 [6-(6-{[2-(4-fluorophenyl)-2-methylpropyl]amino}pyridazin-3-yl)-1,4-dihydroquinoxaline-2,3-dione]

Mean AC1.4 [3]: D (D=>20 uM)
SMILES: CC(C)(CNc1ccc(-c2ccc3c(c2)NC(=O)C3(C)C)nn1)c1ccc(F)cc1 [6-(6-{[2-(4-fluorophenyl)-2-methylpropyl]amino}pyridazin-3-yl)-3,3-dimethylindolin-2-one]

Mean AC1.4 [3]: B (B=1-10 uM)
SMILES: CC(C)(CNc1ccc(-c2cccc(O)n2)nn1)c1ccc(F)cc1 [6-(6-{[2-(4-fluorophenyl)-2-methylpropyl]amino}pyridazin-3-yl)pyridin-2-ol]

Mean AC1.4 [3]: A (A=<1 uM)
SMILES: CC(C)(CNc1ccc(-c2ccc(O)cn2)nn1)c1ccc(F)cc1 [6-(6-{[2-(4-fluorophenyl)-2-methylpropyl]amino}pyridazin-3-yl)pyridin-3-ol]

Mean AC1.4 [3]: B (B=1-10 uM)
SMILES: CC(C)(CNc1ccc(-c2cccc(C(N)=O)n2)nn1)c1ccc(F)cc1 [6-(6-{[2-(4-fluorophenyl)-2-methylpropyl]amino}pyridazin-3-yl)pyridine-2-carboxamide]

Mean AC1.4 [3]: B (B=1-10 uM)
SMILES: CC(C)(CNc1ccc(-c2ccc(C(N)=O)cn2)nn1)c1ccc(F)cc1 [6-(6-{[2-(4-fluorophenyl)-2-methylpropyl]amino}pyridazin-3-yl)pyridine-3-carboxamide]

Mean AC1.4 [2]: D (D=>20 uM)
SMILES: N#Cc1ccc(NCC2(c3ncccc3F)CCC2)nn1 [6-((1-(3-Fluoropyridin-2-yl)cyclobutyl)methylamino)pyridazine-3-carbonitrile]

Mean AC1.4 [2]: D (D=>20 uM)
SMILES: NC(=O)c1ccc(F)c(-c2ccc(NC3(c4cccc(C(N)=O)n4)CCC3)nn2)c1 [6-({[6-(3-carbamoyl-6-fluorophenyl)pyridazin-3-yl]amino}cyclobutyl)pyridine-2-carboxamide]

Mean AC1.4 [1]: D (D=>20 uM)
SMILES: NC(=O)c1ccc(NCC2(c3ncccc3F)CCC2)nn1 [6-({[(3-fluoro-2-pyridyl)cyclobutyl]methyl}ami-no)pyridazine-3-carboxamide]
